Assays:
[1] = target: recombinant rat α2β3γ2 receptors (Rattus norvegicus, UniProt P18508+P23576); assay: Two-electrode voltage clamp of GABA-induced chloride currents in Xenopus oocytes; format: cell-based
[2] = target: recombinant rat α5β3γ2F77I receptors (Rattus norvegicus, UniProt P18508+P19969, F115I); assay: as above; format: cell-based; settings: for efficacy (% GABA EC3): α5β3γ2F77I, ns = not significant
[3] = tested on: GABAA receptors containing the γ2F77I mutation; assay: Modulation of GABA EC3 in receptors containing the γ2F77I mutation; format: cell-based, rat; settings: up to 100 nM
[4] = target: recombinant rat α4β3γ2 receptors (Rattus norvegicus, UniProt P18508+P28471); assay: Two-electrode voltage clamp of GABA-induced chloride currents in Xenopus oocytes; format: cell-based; settings: for efficacy (% GABA EC3): α4β3γ2, ns = not significant
[5] = target: recombinant rat α6β3γ2 receptors (Rattus norvegicus, UniProt P18508+P30191); assay: as above; format: cell-based; settings: for efficacy (% GABA EC3): α6β3γ2, ns = not significant
[6] = target: recombinant rat α5β3γ2 receptors (Rattus norvegicus, UniProt P18508+P19969); assay: as above; format: cell-based; settings: for efficacy (% GABA EC3): ns = not significant
[7] = target: recombinant rat α3β3γ2F77I receptors (Rattus norvegicus, UniProt P18508+P20236, F115I); assay: as above; format: cell-based; settings: for efficacy (% GABA EC3): α3β3γ2F77I, ns = not significant
[8] = target: recombinant rat α2β3γ2F77I receptors (Rattus norvegicus, UniProt P18508+P23576, F115I); assay: as above; format: cell-based; settings: for efficacy (% GABA EC3): α2β3γ2F77I, ns = not significant
[9] = target: recombinant rat α3β3γ2 receptors (Rattus norvegicus, UniProt P18508+P20236); assay: as above; format: cell-based; settings: for efficacy (% GABA EC3): α3β3γ2, ns = not significant
[10] = target: recombinant rat α1β3γ2F77I receptors (Rattus norvegicus, UniProt P18508+P62813, F115I); assay: as above; format: cell-based; settings: for efficacy (% GABA EC3): α1β3γ2F77I, ns = not significant
[11] = target: recombinant rat α1β3γ2 receptors (Rattus norvegicus, UniProt P18508+P62813); assay: as above; format: cell-based; settings: for efficacy (% GABA EC3): ns = not significant
[12] = target: recombinant rat α4β3γ2F77I receptors (Rattus norvegicus, UniProt P18508+P28471, F115I); assay: as above; format: cell-based; settings: ns = not significant
[13] = target: recombinant rat α6β3γ2F77I receptors (Rattus norvegicus, UniProt P18508+P30191, F115I); assay: as above; format: cell-based; settings: ns = not significant
[14] = 10 nM, α2β3γ2, ns = not significant
[15] = 100 nM, α2β3γ2, ns = not significant
[16] = read-out: efficacy (% GABA EC3)

Chain of recombinant rat α3β3γ2 receptors (P20236 29-493): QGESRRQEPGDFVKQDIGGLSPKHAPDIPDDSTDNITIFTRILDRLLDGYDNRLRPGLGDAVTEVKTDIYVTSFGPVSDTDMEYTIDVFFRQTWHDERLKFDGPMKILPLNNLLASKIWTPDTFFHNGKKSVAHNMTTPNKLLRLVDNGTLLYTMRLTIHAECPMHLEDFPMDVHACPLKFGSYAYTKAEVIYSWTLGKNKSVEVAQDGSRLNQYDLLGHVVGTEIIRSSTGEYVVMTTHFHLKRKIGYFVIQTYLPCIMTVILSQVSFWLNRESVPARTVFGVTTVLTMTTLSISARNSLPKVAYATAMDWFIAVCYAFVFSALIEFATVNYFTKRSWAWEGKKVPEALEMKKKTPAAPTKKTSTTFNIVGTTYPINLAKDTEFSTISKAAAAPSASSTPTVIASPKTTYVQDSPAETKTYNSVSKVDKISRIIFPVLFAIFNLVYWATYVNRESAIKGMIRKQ
Chain of recombinant rat α3β3γ2 receptors (P63079 26-473 partner): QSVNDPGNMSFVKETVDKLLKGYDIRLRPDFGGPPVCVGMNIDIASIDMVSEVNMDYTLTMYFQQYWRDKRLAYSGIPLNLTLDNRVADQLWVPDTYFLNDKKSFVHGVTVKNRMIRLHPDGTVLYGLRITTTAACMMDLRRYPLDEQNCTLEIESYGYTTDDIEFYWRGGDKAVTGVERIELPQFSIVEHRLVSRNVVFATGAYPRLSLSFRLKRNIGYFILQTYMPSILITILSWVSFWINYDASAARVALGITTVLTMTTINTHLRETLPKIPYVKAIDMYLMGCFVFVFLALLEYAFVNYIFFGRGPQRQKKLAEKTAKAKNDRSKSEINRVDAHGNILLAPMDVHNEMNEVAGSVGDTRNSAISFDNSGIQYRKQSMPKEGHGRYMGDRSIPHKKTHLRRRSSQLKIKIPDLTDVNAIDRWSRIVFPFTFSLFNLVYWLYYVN
Chain of recombinant rat α3β3γ2 receptors (P18508 39-466): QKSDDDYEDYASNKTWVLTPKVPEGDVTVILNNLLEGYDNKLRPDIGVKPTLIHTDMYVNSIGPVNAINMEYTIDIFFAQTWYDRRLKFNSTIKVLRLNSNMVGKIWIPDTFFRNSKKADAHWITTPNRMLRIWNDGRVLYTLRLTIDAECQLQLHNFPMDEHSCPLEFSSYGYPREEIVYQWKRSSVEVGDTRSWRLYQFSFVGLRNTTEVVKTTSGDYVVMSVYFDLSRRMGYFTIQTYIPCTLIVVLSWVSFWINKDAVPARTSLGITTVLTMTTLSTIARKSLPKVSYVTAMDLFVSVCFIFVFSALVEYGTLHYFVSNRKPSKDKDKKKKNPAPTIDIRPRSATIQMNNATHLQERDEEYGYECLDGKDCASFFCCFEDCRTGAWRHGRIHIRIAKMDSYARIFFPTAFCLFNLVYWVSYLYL
Chain of recombinant rat α3β3γ2F77I receptors (P20236 29-493): as the sequence (P20236 29-493) above
Chain of recombinant rat α3β3γ2F77I receptors (P63079 26-473 partner): as the sequence (P63079 26-473 partner) above
Chain of recombinant rat α3β3γ2F77I receptors (P18508 39-466 F115I): as the sequence (P18508 39-466) above, with F77I counted along it
Chain of recombinant rat α1β3γ2F77I receptors (P62813 28-455): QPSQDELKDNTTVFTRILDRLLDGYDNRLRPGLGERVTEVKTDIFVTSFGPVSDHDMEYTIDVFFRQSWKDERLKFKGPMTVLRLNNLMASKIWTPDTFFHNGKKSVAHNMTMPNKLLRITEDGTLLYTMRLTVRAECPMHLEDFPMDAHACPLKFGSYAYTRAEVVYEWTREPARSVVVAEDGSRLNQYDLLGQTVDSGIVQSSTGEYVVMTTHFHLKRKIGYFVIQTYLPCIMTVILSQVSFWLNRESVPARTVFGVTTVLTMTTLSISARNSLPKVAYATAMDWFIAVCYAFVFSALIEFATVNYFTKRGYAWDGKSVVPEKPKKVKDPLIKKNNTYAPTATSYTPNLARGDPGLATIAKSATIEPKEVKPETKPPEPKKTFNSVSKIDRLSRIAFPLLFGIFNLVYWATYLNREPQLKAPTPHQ
Chain of recombinant rat α1β3γ2F77I receptors (P63079 26-473 partner): as the sequence (P63079 26-473 partner) above
Chain of recombinant rat α1β3γ2F77I receptors (P18508 39-466 F115I): as the sequence (P18508 39-466) above, with F77I counted along it

## COCc1c(C(=O)OC(C)C)ncc2[nH]c3ccc(OCc4ccccc4)cc3c12 [Abecarnil, Isopropyl-6-benzyloxy-4-methoxymethyl-β-carboline-3-carboxylate]
[1]
  EC50: > 1000 nM
[1]; [14]
  efficacy (% GABA EC3): ns
[1]; [15]
  efficacy (% GABA EC3): ns
[1]; read-out: efficacy (% GABA EC3), 1 μM, α2β3γ2, ns = not significant
  activity at 1 µM: 261 ± 45%
[1]; read-out: efficacy (% GABA EC3), 10 μM, α2β3γ2, ns = not significant
  activity at 10 µM: 353 ± 62%
[2]; 10 nM
  efficacy (% GABA EC3): ns
[2]; 100 nM
  efficacy (% GABA EC3): ns
[2]; [16]
  activity at 1 µM: 177 ± 11%
  activity at 10 µM: 283 ± 7%
[3]
  activity in the mutated receptors: inactive
[4]; 1 μM
  efficacy (% GABA EC3): ns
[4]; [16]
  activity at 10 µM: 279 ± 81%
[5]; 1 μM
  efficacy (% GABA EC3): ns
[5]; [16]
  activity at 10 µM: 218 ± 13%
[6]; 10 nM, α5β3γ2
  efficacy (% GABA EC3): ns
[6]; 100 nM, α5β3γ2
  efficacy (% GABA EC3): ns
[6]; [16]
  activity at 1 µM: 169 ± 23%
  activity at 10 µM: 232 ± 38%
[7]; 10 nM
  efficacy (% GABA EC3): ns
[7]; 100 nM
  efficacy (% GABA EC3): ns
[7]; [16]
  activity at 1 µM: 192 ± 4%
  activity at 10 µM: 384 ± 24%
[8]; 10 nM
  efficacy (% GABA EC3): ns
[8]; 100 nM
  efficacy (% GABA EC3): ns
[8]; [16]
  activity at 1 µM: 206 ± 16%
  activity at 10 µM: 420 ± 29%
[9]
  EC50: > 2000 nM
[9]; 10 nM
  efficacy (% GABA EC3): ns
[9]; [16]
  activity at 0.1 µM: 216 ± 44%
  activity at 1 µM: 320 ± 71%
  activity at 10 µM: 480 ± 100%
[10]; 10 nM
  efficacy (% GABA EC3): ns
[10]; 100 nM
  efficacy (% GABA EC3): ns
[10]; [16]
  activity at 1 µM: 179 ± 25%
  activity at 10 µM: 279 ± 42%
[11]
  EC50: > 9000 nM
[11]; [16]
  activity at 0.01 µM: 192 ± 31%
  activity at 0.1 µM: 330 ± 58%
  activity at 1 µM: 407 ± 83%
  activity at 10 µM: 640 ± 157%

## CCOC(=O)c1ncn2c1CN(C)C(=O)c1cc(F)ccc1-2 [Ro15–1788, ethyl-8-fluoro-5,6-dihydro-5-methyl-6-oxo-4H-imidazo[1,5-a][1,4]benzodiazepine-3-carboxylate]
[1]; [14]
  efficacy (% GABA EC3): 121 ± 2 % GABA EC3
[1]; [15]
  efficacy (% GABA EC3): 128 ± 4 % GABA EC3
[1]; 1 μM, α2β3γ2, ns = not significant
  efficacy (% GABA EC3): 130 ± 5 % GABA EC3
[1]; 10 μM, α2β3γ2, ns = not significant
  efficacy (% GABA EC3): 133 ± 7 % GABA EC3
[12]; 10 nM
  efficacy (% GABA EC3): ns
[12]; 100 nM
  efficacy (% GABA EC3): ns
[12]; 1 μM
  efficacy (% GABA EC3): ns
[12]; 10 μM
  efficacy (% GABA EC3): ns
[2]; 10 nM
  efficacy (% GABA EC3): ns
[2]; 100 nM
  efficacy (% GABA EC3): ns
[2]; 1 μM
  efficacy (% GABA EC3): ns
[2]; 10 μM
  efficacy (% GABA EC3): ns
[3]
  activity in the mutated receptors: inactive
[4]
  EC50: > 232 nM
[4]; 10 nM
  efficacy (% GABA EC3): ns
[4]; 100 nM
  efficacy (% GABA EC3): 132 ± 8 % GABA EC3
[4]; 1 μM
  efficacy (% GABA EC3): 162 ± 19 % GABA EC3
[4]; 10 μM
  efficacy (% GABA EC3): 181 ± 10 % GABA EC3
[5]; 10 nM
  efficacy (% GABA EC3): ns
[5]; 100 nM
  efficacy (% GABA EC3): 128 ± 18 % GABA EC3
[5]; 1 μM
  efficacy (% GABA EC3): 166 ± 9 % GABA EC3
[5]; 10 μM
  efficacy (% GABA EC3): 179 ± 6 % GABA EC3
[13]; 10 nM
  efficacy (% GABA EC3): ns
[13]; 100 nM
  efficacy (% GABA EC3): ns
[13]; 1 μM
  efficacy (% GABA EC3): ns
[13]; 10 μM
  efficacy (% GABA EC3): ns
[6]; 10 nM, α5β3γ2
  efficacy (% GABA EC3): ns
[6]; 100 nM, α5β3γ2
  efficacy (% GABA EC3): ns
[6]; 1 μM, α5β3γ2
  efficacy (% GABA EC3): ns
[6]; 10 μM, α5β3γ2
  efficacy (% GABA EC3): ns
[6]; α5β3γ2, control current = 100%
  maximal effect on GABA-induced chloride flux (GABA EC3), % of control current: no significant effects
[7]; 10 nM
  efficacy (% GABA EC3): ns
[7]; 100 nM
  efficacy (% GABA EC3): 106 ± 1 % GABA EC3
[7]; 1 μM
  efficacy (% GABA EC3): 118 ± 2 % GABA EC3
[7]; 10 μM
  efficacy (% GABA EC3): 139 ± 4 % GABA EC3
[8]; 10 nM
  efficacy (% GABA EC3): ns
[8]; 100 nM
  efficacy (% GABA EC3): ns
[8]; 1 μM
  efficacy (% GABA EC3): ns
[8]; 10 μM
  efficacy (% GABA EC3): ns
[9]; 10 nM
  efficacy (% GABA EC3): 128 ± 4 % GABA EC3
[9]; 100 nM
  efficacy (% GABA EC3): 148 ± 7 % GABA EC3
[9]; 1 μM
  efficacy (% GABA EC3): 156 ± 8 % GABA EC3
[9]; 10 μM
  efficacy (% GABA EC3): 157 ± 8 % GABA EC3
[10]; 10 nM
  efficacy (% GABA EC3): ns
[10]; 100 nM
  efficacy (% GABA EC3): ns
[10]; 1 μM
  efficacy (% GABA EC3): ns
[10]; 10 μM
  efficacy (% GABA EC3): ns
[11]; 10 nM, α1β3γ2
  efficacy (% GABA EC3): ns
[11]; 100 nM, α1β3γ2
  efficacy (% GABA EC3): ns
[11]; 1 μM, α1β3γ2
  efficacy (% GABA EC3): ns
[11]; 10 μM, α1β3γ2
  efficacy (% GABA EC3): ns
[11]; α1β3γ2, control current = 100%
  maximal effect on GABA-induced chloride flux (GABA EC3), % of control current: no significant effects

— article PMC7615656 (European journal of pharmacology, 2010)
